From the NIST ThermoML archive (doi:10.1016/j.jct.2018.09.024)
± gives the expanded uncertainty stated by the source.

Legend:
[1] = molar heat capacity at constant pressure; conditions: 101.33 kPa, Liquid, DSC
[2] = 101.33 kPa, Liquid, Laser flash apparatus

Row | SMILES | molar heat capacity at constant pressure ([1]; 303.15 K) [J/K/mol] | molar heat capacity at constant pressure ([1]; 313.15 K) [J/K/mol] | molar heat capacity at constant pressure ([1]; 323.15 K) [J/K/mol] | molar heat capacity at constant pressure ([1]; 333.15 K) [J/K/mol] | molar heat capacity at constant pressure ([1]; 343.15 K) [J/K/mol] | molar heat capacity at constant pressure ([1]; 353.15 K) [J/K/mol] | molar heat capacity at constant pressure ([1]; 363.15 K) [J/K/mol] | molar heat capacity at constant pressure ([1]; 373.15 K) [J/K/mol] | thermal diffusivity ([2]; 303.15 K) [m2/s] | thermal diffusivity ([2]; 313.15 K) [m2/s] | thermal diffusivity ([2]; 323.15 K) [m2/s] | thermal diffusivity ([2]; 333.15 K) [m2/s] | thermal diffusivity ([2]; 343.15 K) [m2/s] | thermal diffusivity ([2]; 353.15 K) [m2/s] | thermal diffusivity ([2]; 363.15 K) [m2/s] | thermal diffusivity ([2]; 373.15 K) [m2/s] | thermal diffusivity ([2]; 383.15 K) [m2/s] | thermal diffusivity ([2]; 393.15 K) [m2/s] | thermal diffusivity ([2]; 403.15 K) [m2/s] | other results
1 | CCCCCCCCCC(=O)OC [methyl decanoate] | 384.7 ± 16 | 387.6 ± 16 | 391.8 ± 16 | 396.7 ± 16 | 401.9 ± 16 | 407.3 ± 16 | 412.4 ± 17 | 417.2 ± 17 | 8.1e-08 ± 4.3e-09 | 7.99e-08 ± 4.3e-09 | 7.87e-08 ± 4.2e-09 | 7.75e-08 ± 4.1e-09 | 7.64e-08 ± 4.1e-09 | 7.52e-08 ± 4e-09 | 7.4e-08 ± 4e-09 | 7.28e-08 ± 3.9e-09 | 7.17e-08 ± 3.8e-09 | 7.05e-08 ± 3.8e-09 | 6.93e-08 ± 3.7e-09 | 
2 | CCCCCCCCCCCC(=O)OC [methyl dodecanoate] | 449 ± 18 | 452.8 ± 18 | 457.4 ± 19 | 462.6 ± 19 | 468.4 ± 19 | 474.5 ± 19 | 480.7 ± 20 | 486.8 ± 20 | 8.27e-08 ± 4.4e-09 | 8.15e-08 ± 4.3e-09 | 8.03e-08 ± 4.3e-09 | 7.91e-08 ± 4.2e-09 | 7.79e-08 ± 4.2e-09 | 7.67e-08 ± 4.1e-09 | 7.55e-08 ± 4e-09 | 7.43e-08 ± 4e-09 | 7.3e-08 ± 3.9e-09 | 7.18e-08 ± 3.8e-09 | 7.06e-08 ± 3.8e-09 | thermal diffusivity ([2]; 413.15 K): 6.94e-08 ± 3.7e-09 m2/s; thermal diffusivity ([2]; 423.15 K): 6.82e-08 ± 3.7e-09 m2/s
3 | CCCCCCC(=O)OC [methyl heptanoate] | 289.2 ± 12 | 292.5 ± 12 | 296.2 ± 12 | 300.1 ± 12 | 304.3 ± 12 | 308.6 ± 12 | 312.8 ± 13 | 316.9 ± 13 | 7.82e-08 ± 4.2e-09 | 7.71e-08 ± 4.1e-09 | 7.59e-08 ± 4.1e-09 | 7.48e-08 ± 4e-09 | 7.36e-08 ± 3.9e-09 | 7.25e-08 ± 3.9e-09 | 7.14e-08 ± 3.8e-09 |  |  |  |  | 
4 | CCCCCC(=O)OC [methyl hexanoate] | 246.4 ± 10 | 248.8 ± 10 | 251.5 ± 10 | 254.6 ± 10 | 257.9 ± 10 | 261.5 ± 11 | 265.5 ± 11 | 269.6 ± 11 | 7.76e-08 ± 4.1e-09 | 7.66e-08 ± 4.1e-09 | 7.56e-08 ± 4e-09 | 7.46e-08 ± 4e-09 |  |  |  |  |  |  |  | 
5 | CCCCCCCCC(=O)OC [methyl nonanoate] | 351.7 ± 14 | 354.7 ± 14 | 358.6 ± 15 | 363.1 ± 15 | 367.9 ± 15 | 372.8 ± 15 | 377.6 ± 15 | 382 ± 16 | 8.01e-08 ± 4.3e-09 | 7.89e-08 ± 4.2e-09 | 7.78e-08 ± 4.2e-09 | 7.66e-08 ± 4.1e-09 | 7.54e-08 ± 4e-09 | 7.43e-08 ± 4e-09 | 7.31e-08 ± 3.9e-09 | 7.19e-08 ± 3.9e-09 | 7.08e-08 ± 3.8e-09 |  |  | 
6 | CCCCCCCC(=O)OC [methyl octanoate] | 316.6 ± 13 | 320.5 ± 13 | 324.4 ± 13 | 328.7 ± 13 | 333.2 ± 14 | 337.8 ± 14 | 342.8 ± 14 | 347 ± 14 | 7.92e-08 ± 4.2e-09 | 7.81e-08 ± 4.2e-09 | 7.69e-08 ± 4.1e-09 | 7.57e-08 ± 4e-09 | 7.46e-08 ± 4e-09 | 7.34e-08 ± 3.9e-09 | 7.22e-08 ± 3.9e-09 | 7.11e-08 ± 3.8e-09 | 6.99e-08 ± 3.7e-09 |  |  | 
7 | CCCCCCCCCCC(=O)OC [methyl undecanoate] | 411.4 ± 17 | 415.9 ± 17 | 420.9 ± 17 | 426.1 ± 17 | 431.4 ± 18 | 436.7 ± 18 | 441.8 ± 18 | 446.5 ± 18 | 8.22e-08 ± 4.4e-09 | 8.1e-08 ± 4.3e-09 | 7.98e-08 ± 4.3e-09 | 7.86e-08 ± 4.2e-09 | 7.74e-08 ± 4.1e-09 | 7.62e-08 ± 4.1e-09 | 7.5e-08 ± 4e-09 | 7.38e-08 ± 4e-09 | 7.26e-08 ± 3.9e-09 | 7.14e-08 ± 3.8e-09 | 7.02e-08 ± 3.8e-09 | thermal diffusivity ([2]; 413.15 K): 6.9e-08 ± 3.7e-09 m2/s; thermal diffusivity ([2]; 423.15 K): 6.78e-08 ± 3.6e-09 m2/s
